From publication PMC8483441 (Journal of Medicinal Chemistry, 2021)
≈ marks a conversion by molar mass, not a printed value. Read-outs that look alike come from different tables or passages of the source. Square brackets hold non-standard residues; d marks the D form. Ends that are not written are not given here. Peptide text beside a SMILES is read from it. Orn = NCCC[C@H](N)C(=O)O

What was measured:
Pseudomonas sp. [1] = experiment: Minimum bactericidal concentration (MBC); format: cell-based; conditions: 50 μL from MIC wells seeded into Petri plates, 24 h; lowest concentration without detectable growth
Protocol: (§1) Incubations were kept at 37 °C for 24 h. Results are the average of three independent studies.

S. flexneri = conditions: 24 h
Text: Purified horse red blood cells were acquired from Thermo Fisher Scientific (Hampshire, England). Human serum was purchased from Sigma (St Louis, USA). E. coli was obtained from the Coli Genetic Stock Center (BW25113). S. flexneri (ATCC 29903), A. baumannii (ATCC 15308), Pseudomonas sp. (ATCC 15915), and S. enterica (ATCC 14028) were obtained from the CECT (Valencia, Spain). Clinical strains were supplied by the Vall d’Hebron Hospital (Barcelona, Spain). MRC5 fibroblasts were obtained from the Cytometry and Cell Culture Facility (SCAC, UAB) and originally purchased from ATCC.
The antibiotic activity was defined by the minimum peptide concentration where the microorganism is unable to grow. The assay was done in polypropylene 96-well plates (Greiner, Frickenhausen, Germany) to avoid peptide binding to plate wells. Peptides were dissolved in water containing 0.4% w/v bovine serum albumin (BSA) and 0.02% v/v glacial acetic acid to prevent self-aggregation, following the reference protocol by Wiegand et al.,[42] based on the classical microtiter broth dilution recommended by the […]. Initial bacteria inoculum was adjusted to 5 × 10^5 CFU/mL in Mueller-Hinton (MH) medium. Incubations were kept at 37 °C for 24 h. Results are the average of three independent studies. MIC assays in the presence of serum were performed by incubating the peptide with human serum at a 1:1 ratio. Then, 10^6 cfu/mL of Pseudomonas sp. were incubated with serial dilutions of the peptides for 4 h. To determine the MBC, 50 μL from all wells were seeded into Petri plates and incubated for 24 h. The MBC concentration was attributed to the lowest concentration without detectable bacterial growth for each peptide.

A. baumannii = format: cell-based, Acinetobacter baumannii; conditions: 24 h
Protocol: (§2) Human serum was purchased from Sigma (St Louis, USA).
as §1

horse red blood cells = experiment: Hemolytic activity; format: cell-based
Protocol: The peptide toxicity was determined detecting the disruption of horse red blood cells, following a previous assay report.[35] 10-fold diluted cells in PBS were centrifuged three times at 800g to eliminate the hemoglobin from disrupted cells. After the last resuspension, erythrocytes were incubated with the peptides for 4 h at 37 °C. The detection was done measuring the supernatant absorbance in a VICTOR3 multilabel plate reader (Perkin Elmer, Waltham, Massachusetts) at 540 nm in a microplate reader. Percentage of hemolysis was calculated through a pattern done with dilutions of total cell lysis done with a 1% Triton X-100 buffer. Results are the average of three independent studies.

Salmonella enterica = format: cell-based; conditions: 24 h
Protocol: as §1

Escherichia coli = format: cell-based; conditions: 24 h
Protocol: as §1

Acinetobacter baumannii = format: cell-based; conditions: 24 h
Protocol: as §1

S. enterica = format: cell-based, Salmonella enterica; conditions: 24 h
Protocol: as §2, §1

Shigella flexneri = conditions: 50 μL from MIC wells seeded into Petri plates, 24 h; lowest concentration without detectable growth
Protocol: The antibiotic activity was defined by the minimum peptide concentration where the microorganism is unable to grow. The assay was done in polypropylene 96-well plates (Greiner, Frickenhausen, Germany) to avoid peptide binding to plate wells. Peptides were dissolved in water containing 0.4% w/v bovine serum albumin (BSA) and 0.02% v/v glacial acetic acid to prevent self-aggregation, following the reference protocol by Wiegand et al.,[42] based on the classical microtiter broth dilution recommended by the National Committee of Laboratory Safety and Standards (NCLSS). Initial bacteria inoculum was adjusted to 5 × 10^5 CFU/mL in Mueller-Hinton (MH) medium. Incubations were kept at 37 °C for 24 h. Results are the average of three independent studies. […] To determine the MBC, 50 μL from all wells were seeded into Petri plates and incubated for 24 h. The MBC concentration was attributed to the lowest concentration without detectable bacterial growth for each peptide.

Pseudomonas sp. [2] = experiment: MIC, broth microdilution; format: cell-based; conditions: Pseudomonas sp. ATCC 15915; Mueller-Hinton medium, 5 × 10^5 CFU/mL, 37 °C, 24 h; average of three independent studies
Protocol: as §2, §1

E. coli = format: cell-based, Escherichia coli; conditions: 24 h
Protocol: as §2, §1

Pseudomonas sp. [3] = experiment: MIC of peptides incubated with human serum; format: cell-based; conditions: peptide incubated with human serum 1:1; 10^6 cfu/mL Pseudomonas sp., 4 h
Protocol: as §1

MRC-5 cells = experiment: Cytotoxicity in mammalian cells (MTT assay); format: cell-based
Protocol: (§3) MRC-5 cells were grown in Eagle’s minimum essential medium (MEMα), supplemented with 10% fetal bovine serum (FBS). 96-well plates were seeded with 3 × 10^4 cells/well and cultured overnight in order to get cells adhered into the plate and then incubated with two-fold peptide serial dilutions. After 4 h of incubation, the medium containing the peptides was replaced by MEMα supplemented with FBS and 3-(4,5-dimethylthiazol-2-yl)-2,5-diphenyltetrazolium bromide (MTT) at 0.4 mg/mL and incubated for 150 min. Detection of formazan crystals in the living cells was done by cell disruption by addition of 200 μL of dimethyl sulfoxide (DMSO) followed by absorbance measuring at 600 nm in a Tecan Infinite F Nano+ microplate reader (Tecan, Germany). Results are the average of three independent studies.

[4] = Cytotoxicity in mammalian cells (MTT assay); format: cell-based; conditions: MRC-5 cytotoxicity (IC50)
Protocol: as §3

S. typhimurium 365 = experiment: MIC, clinical bacterial strain; format: cell-based
Protocol: as §2, §1

A. baumannii 3879 = experiment: MIC, clinical bacterial strain; format: cell-based
Protocol: as §2, §1

A. baumannii 3880 = experiment: MIC, clinical bacterial strain; format: cell-based
Protocol: as §2, §1

A. baumannii 3878 = experiment: MIC, clinical bacterial strain; format: cell-based
Protocol: as §2, §1

E. coli cf073 = experiment: MIC, clinical bacterial strain; format: cell-based
Protocol: as §2, §1

S. typhimurium 324 = experiment: MIC, clinical bacterial strain; format: cell-based
Protocol: as §2, §1

P. aeruginosa 827632 = experiment: MIC, clinical bacterial strain; format: cell-based
Protocol: as §2, §1

E. coli 116878 = experiment: MIC, clinical bacterial strain; format: cell-based
Protocol: as §2, §1

A. baumannii 3862 = experiment: MIC, clinical bacterial strain; format: cell-based
Protocol: as §2, §1

P. aeruginosa 827651 = experiment: MIC, clinical bacterial strain; format: cell-based
Protocol: as §2, §1

| Compound | MBC Pseudomonas sp. (Pseudomonas sp. [1]) [µM] | MIC S. flexneri (S. flexneri) [µM] | MIC A. baumannii (A. baumannii) [µM] | hemolysis % (250 μM peptide) (horse red blood cells; red cells of horse, 4 h, 250) [%] | MBC Salmonella enterica (Salmonella enterica) [µM] | MBC Escherichia coli (Escherichia coli) [µM] | MBC Acinetobacter baumannii (Acinetobacter baumannii) [µM] | MIC S. enterica (S. enterica) [µM] | MBC Shigella flexneri (Shigella flexneri) [µM] | MIC Pseudomonas sp. (Pseudomonas sp. [2]) [µM] | MIC E. coli (E. coli) [µM] | MIC in Pseudomonas sp., peptides incubated with human serum (Pseudomonas sp. [3]) [µM] | IC50 [4] [µM] | MIC S. typhimurium 365 (S. typhimurium 365) [µM] | MIC A. baumannii 3879 (A. baumannii 3879) [µM] | MIC A. baumannii 3880 (A. baumannii 3880) [µM] | MIC A. baumannii 3878 (A. baumannii 3878) [µM] | MIC E. coli cf073 (E. coli cf073) [µM] | MIC S. typhimurium 324 (S. typhimurium 324) [µM] | MIC P. aeruginosa 827632 (P. aeruginosa 827632) [µM] | also measured |
| --- | --- | --- | --- | --- | --- | --- | --- | --- | --- | --- | --- | --- | --- | --- | --- | --- | --- | --- | --- | --- | --- |
| CC[C@H](C)[C@H](NC(=O)[C@H](C)NC(=O)[C@H](CCCN)NC(=O)[C@H](CCSC)NC(=O)[C@H](C)NC(=O)[C@@H](NC(=O)[C@@H](NC(=O)[C@H](CCCN)NC(=O)[C@@H]1CCCN1C(=O)[C@H](CO)NC(=O)[C@@H](NC(=O)[C@H](Cc1c[nH]cn1)NC(=O)[C@H](CCC(N)=O)NC(=O)[C@@H](NC(=O)[C@H](C)NC(=O)[C@H](Cc1ccccc1)NC(=O)[C@H](Cc1c[nH]c2ccccc12)NC(=O)[C@H](CCC(N)=O)NC(=O)[C@H](C)NC(=O)[C@H](CCCN)NC(=O)[C@@H](NC(=O)[C@H](Cc1ccccc1)NC(=O)[C@@H]1CCCN1C(=O)[C@@H](N)CCCN)[C@@H](C)O)[C@@H](C)CC)[C@@H](C)CC)[C@@H](C)O)[C@@H](C)CC)C(=O)N[C@@H](CC(N)=O)C(=O)N[C@@H](CC(N)=O)C(=O)N[C@@H](Cc1ccc(O)cc1)C(=O)N[C@@H](CCCN)C(=O)N[C@@H](Cc1c[nH]c2ccccc12)C(=O)N[C@@H](CCCN)C(N)=O [peptide 2] (H-[Orn]PFT[Orn]AQWFAIQHISP[Orn]TIAM[Orn]AINNY[Orn]W[Orn]-NH2) | 6.25 (≈ 21.9 µg/mL) | 12.5 (≈ 43.8 µg/mL) | 6.25 (≈ 21.9 µg/mL) | 10 ± 2 | 25 (≈ 87.6 µg/mL) | 6.25 (≈ 21.9 µg/mL) | 6.25 (≈ 21.9 µg/mL) | 25 (≈ 87.6 µg/mL) | 12.5 (≈ 43.8 µg/mL) | 6.25 (≈ 21.9 µg/mL) | 6.25 (≈ 21.9 µg/mL) | 50 | ≤ 180 | – | – | – | – | – | – | – | hemolysis % (250 μM peptide) (horse red blood cells): 10%; IC50 (MRC-5 cells; 4 h): 113 ± 8 µM |
| CC[C@H](C)[C@H](NC(=O)[C@H](C)NC(=O)[C@H](CCCN)NC(=O)[C@H](CCSC)NC(=O)[C@H](C)NC(=O)[C@@H](NC(=O)[C@@H](NC(=O)[C@H](CCCN)NC(=O)[C@@H]1CCCN1C(=O)[C@H](CO)NC(=O)[C@@H](NC(=O)[C@H](Cc1c[nH]cn1)NC(=O)[C@H](CCC(N)=O)NC(=O)[C@@H](NC(=O)[C@H](C)NC(=O)[C@H](Cc1ccccc1)NC(=O)[C@H](Cc1c[nH]c2ccccc12)NC(=O)[C@H](CCC(N)=O)NC(=O)[C@H](C)NC(=O)[C@H](CCCN)NC(=O)[C@@H](NC(=O)[C@@H](N)Cc1ccccc1)[C@@H](C)O)[C@@H](C)CC)[C@@H](C)CC)[C@@H](C)O)[C@@H](C)CC)C(=O)N[C@@H](CC(N)=O)C(=O)N[C@@H](CC(N)=O)C(=O)N[C@@H](Cc1ccc(O)cc1)C(=O)N[C@@H](CCCN)C(=O)N[C@@H](Cc1c[nH]c2ccccc12)C(=O)N[C@@H](CCCN)C(N)=O [peptide 5] (H-FT[Orn]AQWFAIQHISP[Orn]TIAM[Orn]AINNY[Orn]W[Orn]-NH2) | 25 (≈ 82.3 µg/mL) | 50 (≈ 165 µg/mL) | >100 | 11 ± 4 | > 100 | 25 (≈ 82.3 µg/mL) | > 100 | >100 | 50 (≈ 165 µg/mL) | 25 (≈ 82.3 µg/mL) | 25 (≈ 82.3 µg/mL) | – | > 300 | – | – | – | – | – | – | – | MRC-5 cytotoxicity (IC50) (MRC-5 cells): No toxicity was detected |
| CC[C@H](C)[C@H](NC(=O)[C@H](C)NC(=O)[C@H](CCCN)NC(=O)[C@H](CCSC)NC(=O)[C@H](C)NC(=O)[C@@H](NC(=O)[C@@H](NC(=O)[C@H](CCCN)NC(=O)[C@@H]1CCCN1C(=O)[C@H](CO)NC(=O)[C@@H](NC(=O)[C@H](Cc1c[nH]cn1)NC(=O)[C@H](CCC(N)=O)NC(=O)[C@@H](NC(=O)[C@H](C)NC(=O)[C@H](Cc1ccccc1)NC(=O)[C@H](Cc1c[nH]c2ccccc12)NC(=O)[C@H](CCC(N)=O)NC(=O)[C@H](C)NC(=O)[C@H](CCCN)NC(=O)[C@@H](NC(=O)[C@H](Cc1ccccc1)NC(=O)[C@H]1CCCN1C(=O)[C@@H](N)CCCN)[C@@H](C)O)[C@@H](C)CC)[C@@H](C)CC)[C@@H](C)O)[C@@H](C)CC)C(=O)N[C@@H](CC(N)=O)C(=O)N[C@@H](CC(N)=O)C(=O)N[C@@H](Cc1ccc(O)cc1)C(=O)N[C@@H](CCCN)C(=O)N[C@@H](Cc1c[nH]c2ccccc12)C(=O)N[C@@H](CCCN)C(N)=O [peptide 6] (H-[Orn][dP]FT[Orn]AQWFAIQHISP[Orn]TIAM[Orn]AINNY[Orn]W[Orn]-NH2) | 1.56 (≈ 5.47 µg/mL) | 50 (≈ 175 µg/mL) | 12.5 (≈ 43.8 µg/mL) | 1.1 ± 0.9 | 50 (≈ 175 µg/mL) | 3.13 (≈ 11 µg/mL) | 12.5 (≈ 43.8 µg/mL) | 50 (≈ 175 µg/mL) | 50 (≈ 175 µg/mL) | 1.56 (≈ 5.47 µg/mL) | 3.13 (≈ 11 µg/mL) | – | 230 ± 40 | 25 (≈ 87.6 µg/mL) | 3.13 (≈ 11 µg/mL) | 12.5 (≈ 43.8 µg/mL) | 0.78 (≈ 2.73 µg/mL) | 6.25 (≈ 21.9 µg/mL) | 25 (≈ 87.6 µg/mL) | >100 | MIC E. coli 116878 (E. coli 116878): 25 µM (≈ 87.6 µg/mL); MIC A. baumannii 3862 (A. baumannii 3862): 1.56 µM (≈ 5.47 µg/mL); MIC P. aeruginosa 827651 (P. aeruginosa 827651): 25 µM (≈ 87.6 µg/mL) |
| RPFTRAQWFAIQHISPRTIAMRAINNYRWR-NH2 [peptide 1, hECP30] | 1.56 | 3.13 | – | – | 12.5 | 1.56 | – | 12.5 | 3.13 | 1.56 | 1.56 | 25 | 23 ± 4 | 6.25 | 1.56 | 1.56 | 1.56 | 3.13 | 6.25 | 12.5 | MIC A. baumannii (A. baumannii; A. baumannii ATCC 15308, Mueller-Hinton medium, 5 × 10^5 CFU/mL, 37 °C, average of three independent studies): 1.56 µM; hemolytic activity at 10-fold the MIC (horse red blood cells; red cells of horse, 4 h): below 10%; MBC Acinetobacter baumannii (Acinetobacter baumannii; 50 μL from MIC wells seeded into Petri plates, lowest concentration without detectable growth): 1.56 µM; MIC E. coli 116878 (E. coli 116878): 6.25 µM; MIC A. baumannii 3862 (A. baumannii 3862): 0.78 µM; MIC P. aeruginosa 827651 (P. aeruginosa 827651): 25 µM |
